{
  "source": "patent US20100150894A1",
  "about": "“COMPOSITION FOR PREVENTION OF CANCER” (Kaneka Corporation, priority 2005, published 2010)",
  "test_system": "azoxymethane (AOM)-induced aberrant crypt foci (ACF) in colon",
  "test": "Cancer prevention evaluation: AOM-induced colon aberrant crypt foci (ACF) in rats",
  "format": "in vivo",
  "settings": "male F344 rats, 4 weeks; for number of formation of ACF compared with the control group: AOM 15 mg/kg s.c. once a week over two weeks",
  "experimental": "6-week-old male F344 rats were divided into 3 groups (2 treated groups and 1 control group; each group consisted of 9 rats) and a colon carcinogen azoxymethane (AOM) was injected subcutaneously at the dose of 15 mg/kg body weight once a week over two weeks. From the day before injection of AOM, to the treated groups, coenzyme Q10 (Kaneka Q10, Kaneka Corporation) was fed together with feed at the concentration of 200 or 500 ppm, respectively. 4 weeks later, aberrant crypt foci (ACF), which is a precancerous change in colon cancer, was analyzed. After the rats were sacrificed, the colons (from the cecum to rectum) were enucleated and fixed using a 10% neutral buffered formalin. After the fixation, the colons were washed with a phosphate buffered-saline and stained with a 0.2% methylene blue-containing phosphate buffered-saline. Then, the number and size of ACF were measured using a microscope. […] As observed above, it was made clear that coenzyme Q10 has an effect for inhibiting the initial stage of AOM-induced formation of colon ACF, which is a precancerous change of colon cancer.",
  "data": [
    {"smiles": "COC1=C(OC)C(=O)C(C/C=C(\\C)CC/C=C(\\C)CC/C=C(\\C)CC/C=C(\\C)CC/C=C(\\C)CC/C=C(\\C)CC/C=C(\\C)CC/C=C(\\C)CC/C=C(\\C)CCC=C(C)C)=C(C)C1=O", "note": "[coenzyme Q10]", "values": [
      {"measurement": "number of formation of ACF compared with the control group", "setting": "coenzyme Q10 200 ppm in feed", "result": 76.6, "unit": "%"},
      {"measurement": "number of formation of ACF compared with the control group", "setting": "coenzyme Q10 500 ppm in feed, p<0.01", "result": 68.0, "unit": "%"},
      {"measurement": "size difference in ACF between control group and treated groups", "setting": "AOM-induced, coenzyme Q10 200 or 500 ppm in feed", "result": "not recognized"}
    ]}
  ]
}
